Tests used:
[1] = test system: Human immunodeficiency virus 1; assay: Antiviral activity against HIV1 NL4.3 infected in human MT4 cells expressing CD4 and CXCR4 assessed as inhibition of virus-induced cytopathicity; assay type: functional, organism-based; details: Human immunodeficiency virus 1, NL4.3, MT4
[2] = Cytotoxicity against human MT4 cells expressing CD4 and CXCR4 assessed as cell viability
[3] = molecular target: T1, C-X-C chemokine receptor type 4 (Homo sapiens, UniProt P61073); assay: Antagonist activity at CXCR4 in human CEM-CCRF cells assessed as inhibition of SDF-1-induced calcium flux; assay type: functional, cell-based
T1 sequence (P61073 whole entry): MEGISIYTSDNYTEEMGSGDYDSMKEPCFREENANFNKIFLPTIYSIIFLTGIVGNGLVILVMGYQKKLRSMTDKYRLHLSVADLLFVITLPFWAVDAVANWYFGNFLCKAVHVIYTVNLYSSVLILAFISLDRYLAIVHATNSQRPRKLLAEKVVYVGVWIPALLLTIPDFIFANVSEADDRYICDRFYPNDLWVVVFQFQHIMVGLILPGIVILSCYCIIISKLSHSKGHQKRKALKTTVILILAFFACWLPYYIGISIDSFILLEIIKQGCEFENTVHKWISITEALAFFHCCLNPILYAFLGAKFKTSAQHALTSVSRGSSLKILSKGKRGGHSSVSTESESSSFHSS

[4] = molecular target: T2, C-X-C chemokine receptor type 2 (Homo sapiens, UniProt P25025); assay: Displacement of radiolabeled IL8 from CXCR2 receptor
T2 sequence (P25025 whole entry): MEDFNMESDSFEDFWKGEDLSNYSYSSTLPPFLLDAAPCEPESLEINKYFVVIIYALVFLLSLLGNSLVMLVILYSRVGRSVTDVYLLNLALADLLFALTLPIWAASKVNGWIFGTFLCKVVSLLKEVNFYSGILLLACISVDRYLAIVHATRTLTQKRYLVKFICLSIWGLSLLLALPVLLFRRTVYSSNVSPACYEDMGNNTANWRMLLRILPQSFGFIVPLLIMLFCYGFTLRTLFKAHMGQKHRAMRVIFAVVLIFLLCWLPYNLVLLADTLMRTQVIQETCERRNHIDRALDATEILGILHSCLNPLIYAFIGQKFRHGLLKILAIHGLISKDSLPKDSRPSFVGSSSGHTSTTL

[5] = test system: Human immunodeficiency virus 1; assay: Antiviral activity against HIV1 NL4.3 infected in human PBMC assessed as inhibition of virus-induced cytopathicity; assay type: functional, organism-based; details: Human immunodeficiency virus 1, NL4.3
[6] = molecular target: C-C chemokine receptor type 5 (Homo sapiens, UniProt P51681); assay: Displacement of radiolabeled MIP1beta from CCR5 receptor
Chain of C-C chemokine receptor type 5 (P51681 whole entry): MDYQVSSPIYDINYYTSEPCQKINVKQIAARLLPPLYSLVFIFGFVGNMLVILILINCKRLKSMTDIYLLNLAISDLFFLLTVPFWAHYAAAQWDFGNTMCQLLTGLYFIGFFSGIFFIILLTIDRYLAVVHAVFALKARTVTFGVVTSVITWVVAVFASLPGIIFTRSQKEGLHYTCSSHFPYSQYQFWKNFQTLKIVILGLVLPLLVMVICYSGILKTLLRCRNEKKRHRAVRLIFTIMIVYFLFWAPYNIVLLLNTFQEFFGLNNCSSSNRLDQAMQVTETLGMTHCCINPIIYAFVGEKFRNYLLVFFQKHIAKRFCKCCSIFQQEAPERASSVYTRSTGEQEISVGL

[7] = molecular target: T3, C-X-C chemokine receptor type 1 (Homo sapiens, UniProt P25024); assay: Displacement of radiolabeled IL8 from CXCR1 receptor
T3 sequence (P25024 whole entry): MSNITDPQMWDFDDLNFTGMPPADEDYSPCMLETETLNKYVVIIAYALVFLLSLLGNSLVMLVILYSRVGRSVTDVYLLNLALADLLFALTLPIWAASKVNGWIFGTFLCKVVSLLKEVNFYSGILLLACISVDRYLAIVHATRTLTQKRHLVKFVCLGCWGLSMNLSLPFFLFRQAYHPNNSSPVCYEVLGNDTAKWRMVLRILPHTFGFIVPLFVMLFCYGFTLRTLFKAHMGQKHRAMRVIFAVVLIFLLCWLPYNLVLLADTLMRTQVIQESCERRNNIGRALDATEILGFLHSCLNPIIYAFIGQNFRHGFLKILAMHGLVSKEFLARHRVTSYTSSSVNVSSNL

[8] = molecular target: T4, C-C chemokine receptor type 4 (Homo sapiens, UniProt P51679); assay: Displacement of radiolabeled TARC from CCR4 receptor
T4 sequence (P51679 whole entry): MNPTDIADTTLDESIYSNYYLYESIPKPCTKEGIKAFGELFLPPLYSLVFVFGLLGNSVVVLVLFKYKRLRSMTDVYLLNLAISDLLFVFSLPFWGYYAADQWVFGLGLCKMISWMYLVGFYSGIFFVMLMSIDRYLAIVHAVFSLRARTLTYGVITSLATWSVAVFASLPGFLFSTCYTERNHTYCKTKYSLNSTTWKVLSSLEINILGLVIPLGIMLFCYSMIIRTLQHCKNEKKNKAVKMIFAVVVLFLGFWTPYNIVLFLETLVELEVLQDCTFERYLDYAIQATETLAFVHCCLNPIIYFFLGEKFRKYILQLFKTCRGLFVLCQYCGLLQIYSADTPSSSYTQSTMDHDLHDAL

[9] = molecular target: C-C chemokine receptor type 2 (Homo sapiens, UniProt P41597); assay: Displacement of radiolabeled MCP1 from CCR2b receptor
Chain of C-C chemokine receptor type 2 (P41597 whole entry): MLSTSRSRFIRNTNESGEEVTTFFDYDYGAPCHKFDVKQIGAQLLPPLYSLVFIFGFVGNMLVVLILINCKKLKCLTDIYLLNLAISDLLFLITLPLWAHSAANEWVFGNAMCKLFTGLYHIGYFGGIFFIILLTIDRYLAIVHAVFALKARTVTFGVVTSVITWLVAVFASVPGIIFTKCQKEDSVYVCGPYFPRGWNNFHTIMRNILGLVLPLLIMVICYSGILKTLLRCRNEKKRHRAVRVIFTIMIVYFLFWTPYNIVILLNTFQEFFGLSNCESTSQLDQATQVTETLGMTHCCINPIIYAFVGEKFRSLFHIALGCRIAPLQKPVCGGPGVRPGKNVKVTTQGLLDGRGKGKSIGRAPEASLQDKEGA

[10] = molecular target: T5, C-C chemokine receptor type 1 (Homo sapiens, UniProt P32246); assay: Displacement of radiolabeled MIP1alpha from CCR1 receptor
T5 sequence (P32246 whole entry): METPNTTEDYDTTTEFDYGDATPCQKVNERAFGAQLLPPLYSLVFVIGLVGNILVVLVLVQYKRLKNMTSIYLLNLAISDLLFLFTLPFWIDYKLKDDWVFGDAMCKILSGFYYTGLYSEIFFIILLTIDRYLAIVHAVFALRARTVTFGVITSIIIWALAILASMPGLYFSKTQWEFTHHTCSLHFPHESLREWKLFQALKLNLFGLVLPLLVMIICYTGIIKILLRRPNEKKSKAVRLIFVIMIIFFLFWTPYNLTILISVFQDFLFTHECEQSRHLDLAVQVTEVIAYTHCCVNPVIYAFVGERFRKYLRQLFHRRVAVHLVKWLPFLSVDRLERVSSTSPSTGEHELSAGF

[11] = molecular target: T1, C-X-C chemokine receptor type 4; assay: Inhibition of anti-CXCR4 12G5 monoclonal antibody to CXCR4 in human SUP-T1 cells pretreated for 30 mins by flow cytometry; assay type: cell-based
[12] = test system: Human immunodeficiency virus 1; assay: Antiviral activity against HIV1 3B infected in human MT4 cells assessed as inhibition of virus-induced cytopathicity in presence of 10% human serum; assay type: functional, organism-based; details: Human immunodeficiency virus 1, 3B
[13] = test system: Human immunodeficiency virus 1; assay: Antiviral activity against HIV1 NL4.3 infected in human MT4 cells assessed as inhibition of virus-induced cytopathicity in presence of 10% human serum; assay type: functional, organism-based; details: Human immunodeficiency virus 1, NL4.3, MT4
[14] = Cmax in rat; assay type: ADME, organism-based; details: in vivo
[15] = Cmax in dog; assay type: ADME, organism-based, Canis lupus familiaris; details: in vivo
[16] = test system: Rattus norvegicus; assay: Volume of distribution in rat at 10 mg/kg, iv; assay type: ADME, organism-based; set-up: dose 10 mg/kg, route intravenous; details: in vivo
[17] = test system: Canis familiaris; assay: Volume of distribution in dog at 5 mg/kg, iv; assay type: ADME, organism-based, Canis lupus familiaris; set-up: dose 5 mg/kg, route intravenous; details: in vivo
[18] = test system: Rattus norvegicus; assay: Half life in rat at 10 mg/kg, iv; assay type: ADME, organism-based; set-up: dose 10 mg/kg, route intravenous; details: in vivo
[19] = test system: Canis familiaris; assay: Half life in dog at 5 mg/kg, iv; assay type: ADME, organism-based, Canis lupus familiaris; set-up: dose 5 mg/kg, route intravenous; details: in vivo
[20] = Oral bioavailability in rat at 40 mg/kg; assay type: ADME, organism-based; details: in vivo
[21] = Oral bioavailability in dog at 25 mg/kg; assay type: ADME, organism-based, Canis lupus familiaris; details: in vivo
[22] = test system: Human immunodeficiency virus 1; assay: Antiviral activity against HIV1 3B infected in human MT-4 cells assessed as inhibition of virus-induced cytopathicity; details: Human immunodeficiency virus 1, 3B
[23] = test system: Rattus norvegicus; assay: Volume of distribution in rat at 5 mg/kg, iv; assay type: ADME, organism-based; set-up: dose 5 mg/kg, route intravenous; details: in vivo
[24] = test system: Rattus norvegicus; assay: Half life in rat at 5 mg/kg, iv; assay type: ADME, organism-based; set-up: dose 5 mg/kg, route intravenous; details: in vivo
[25] = Oral bioavailability in rat at 100 mg/kg; assay type: ADME, organism-based; details: in vivo
[26] = Oral bioavailability in dog at 6 mg/kg; assay type: ADME, organism-based, Canis lupus familiaris; details: in vivo
[27] = MT4 cells expressing CD4 and CXCR4

Compound	IC50 [1] [nM]	CC50 [2, 27] [nM]	IC50 [3] [nM]	further results
NCCN(Cc1ccc(CNCc2ccccn2)cc1)C1CCCc2cccnc21 (stereo not given)	> 25000	126000	–	–
c1ccc(CNCc2ccc(CN(Cc3nc4ccccc4o3)C3CCCc4cccnc43)cc2)nc1 (stereo not given)	9100	204000	–	–
c1ccc(CNCCN(Cc2ccc(CNCc3ccccn3)cc2)C2CCCc3cccnc32)cc1 (stereo not given)	920	23000	–	–
c1ccc(CNCc2ccc(CN(CCCc3nc4ccccc4[nH]3)C3CCCc4cccnc43)cc2)nc1 (stereo not given)	1200	101000	–	–
O=C(Nc1ccc(CN(Cc2nc3ccccc3[nH]2)C2CCCc3cccnc32)cc1)c1ccccn1 (stereo not given)	660	37500	–	–
O=C(NCc1ccc(CN(Cc2nc3ccccc3[nH]2)C2CCCc3cccnc32)cc1)c1ccccn1 (stereo not given)	880	36800	–	–
CN(C)CCCCN(Cc1nc2ccccc2[nH]1)C1CCCc2cccnc21 (stereo not given)	51	29500	87	–
CNCCCCN(Cc1nc2ccccc2[nH]1)C1CCCc2cccnc21 (stereo not given)	–	28200	190	–
O=C(Nc1ccccn1)c1ccc(CN(Cc2nc3ccccc3[nH]2)C2CCCc3cccnc32)cc1 (stereo not given)	980	34300	–	–
O=C(NCc1ccccn1)c1ccc(CN(Cc2nc3ccccc3[nH]2)C2CCCc3cccnc32)cc1 (stereo not given)	1440	127000	–	–
NCc1ccc(CN(Cc2nc3ccccc3[nH]2)C2CCCc3cccnc32)cc1 (stereo not given)	167	238000	119	–
NCCCCCN(Cc1nc2ccccc2[nH]1)C1CCCc2cccnc21 (stereo not given)	74	30200	514	–
N#CCCCCN(Cc1nc2ccccc2[nH]1)C1CCCc2cccnc21 (stereo not given)	774	–	442	CC50 ([2]; mt4): 55300 nM
NCCCC(=O)N(Cc1nc2ccccc2[nH]1)C1CCCc2cccnc21 (stereo not given)	2640	152000	3200	–
c1ccc(CNCc2ccc(CN(Cc3nc4ccccc4[nH]3)C3CCCc4cccnc43)cc2)cc1 (stereo not given)	95	26400	–	–
NCc1ccccc1CN(Cc1nc2ccccc2[nH]1)C1CCCc2cccnc21 (stereo not given)	21	29600	50	–
c1ccc(CNCc2ccc(CN(Cc3nc4ccccc4[nH]3)[C@H]3CCCc4cccnc43)cc2)nc1	30	–	–	IC50 [4]: > 10000 nM; IC90 [5]: 559 nM; IC50 [6]: > 10000 nM; IC50 [7]: > 10000 nM; IC50 [8]: > 10000 nM; IC50 [9]: > 10000 nM; IC50 [10]: > 10000 nM; IC50 [11]: 120 nM; IC50 [12]: 81 nM; IC50 [13]: 69 nM; Cmax [14]: 4500 ng/mL; Cmax [15]: 800 ng/mL; Vd [16]: 5.5 L/kg; Vd [17]: 17.5 L/kg; t1/2 [18]: 2.9 h; t1/2 [19]: 5.7 h; bioavailability [20]: 48%; bioavailability [21]: 55%; IC90 [22]: 108 nM
NCCCCN(Cc1nc2ccccc2[nH]1)[C@@H]1CCCc2cccnc21	144	–	–	–
NCCN(Cc1nc2ccccc2[nH]1)C1CCCc2cccnc21 (stereo not given)	1370	6860	1370	–
c1ccc(CNCc2ccc(CN(Cc3cc4ccccc4[nH]3)C3CCCc4cccnc43)cc2)nc1 (stereo not given)	1600	8000	–	–
NCCCCN(Cc1nc2ccccc2[nH]1)[C@H]1CCCc2cccnc21 [MAVORIXAFOR]	2	–	–	IC50 [4]: > 10000 nM; IC50 [5]: 9 nM; IC90 [5]: 26 nM; IC50 [6]: > 10000 nM; IC50 [7]: > 10000 nM; IC50 [8]: > 10000 nM; IC50 [9]: > 10000 nM; IC50 [10]: > 10000 nM; IC50 [13]: 16 nM; Cmax [14]: 1200 ng/mL; Cmax [15]: 1700 ng/mL; Vd [23]: 14.3 L/kg; t1/2 [24]: 3.5 h; bioavailability [25]: 22%; bioavailability [26]: 80%

— ChEMBL document CHEMBL1156989, “Discovery of novel small molecule orally bioavailable C-X-C chemokine receptor 4 antagonists that are potent inhibitors of T-tropic (X4) HIV-1 replication” (J Med Chem, 2010)
